The kinase profiling compilation of Christmann-Franck et al. (2016)

Key:
Assay in all cases: KINOMEscan competition binding
Details in all cases: compound 1.0 µM
[1] = target: JAK3 JH1 catalytic (human) (UniProt P52333)
EPHA8 (human) = EPHA8 (human) (UniProt P29322)
TLK1 (human) = TLK1 (human) (UniProt Q9UKI8)
ERN1 (human) = ERN1 (human) (UniProt O75460)
EPHA7 (human) = EPHA7 (human) (UniProt Q15375)
PKN1 (human) = PKN1 (human) (UniProt Q16512)
CAMKK1 (human) = CAMKK1 (human) (UniProt Q8N5S9)
RPS6KA5 KD2 (human) = RPS6KA5 KD2 (human) (UniProt O75582)
MAPK12 (human) = MAPK12 (human) (UniProt P53778)
EGFR (human) = EGFR (human) (UniProt P00533)
EPHB2 (human) = EPHB2 (human) (UniProt P29323)
ERBB2 (human) = ERBB2 (human) (UniProt P04626)
Sequence of ERBB2 (human) (P04626 whole entry, looked up): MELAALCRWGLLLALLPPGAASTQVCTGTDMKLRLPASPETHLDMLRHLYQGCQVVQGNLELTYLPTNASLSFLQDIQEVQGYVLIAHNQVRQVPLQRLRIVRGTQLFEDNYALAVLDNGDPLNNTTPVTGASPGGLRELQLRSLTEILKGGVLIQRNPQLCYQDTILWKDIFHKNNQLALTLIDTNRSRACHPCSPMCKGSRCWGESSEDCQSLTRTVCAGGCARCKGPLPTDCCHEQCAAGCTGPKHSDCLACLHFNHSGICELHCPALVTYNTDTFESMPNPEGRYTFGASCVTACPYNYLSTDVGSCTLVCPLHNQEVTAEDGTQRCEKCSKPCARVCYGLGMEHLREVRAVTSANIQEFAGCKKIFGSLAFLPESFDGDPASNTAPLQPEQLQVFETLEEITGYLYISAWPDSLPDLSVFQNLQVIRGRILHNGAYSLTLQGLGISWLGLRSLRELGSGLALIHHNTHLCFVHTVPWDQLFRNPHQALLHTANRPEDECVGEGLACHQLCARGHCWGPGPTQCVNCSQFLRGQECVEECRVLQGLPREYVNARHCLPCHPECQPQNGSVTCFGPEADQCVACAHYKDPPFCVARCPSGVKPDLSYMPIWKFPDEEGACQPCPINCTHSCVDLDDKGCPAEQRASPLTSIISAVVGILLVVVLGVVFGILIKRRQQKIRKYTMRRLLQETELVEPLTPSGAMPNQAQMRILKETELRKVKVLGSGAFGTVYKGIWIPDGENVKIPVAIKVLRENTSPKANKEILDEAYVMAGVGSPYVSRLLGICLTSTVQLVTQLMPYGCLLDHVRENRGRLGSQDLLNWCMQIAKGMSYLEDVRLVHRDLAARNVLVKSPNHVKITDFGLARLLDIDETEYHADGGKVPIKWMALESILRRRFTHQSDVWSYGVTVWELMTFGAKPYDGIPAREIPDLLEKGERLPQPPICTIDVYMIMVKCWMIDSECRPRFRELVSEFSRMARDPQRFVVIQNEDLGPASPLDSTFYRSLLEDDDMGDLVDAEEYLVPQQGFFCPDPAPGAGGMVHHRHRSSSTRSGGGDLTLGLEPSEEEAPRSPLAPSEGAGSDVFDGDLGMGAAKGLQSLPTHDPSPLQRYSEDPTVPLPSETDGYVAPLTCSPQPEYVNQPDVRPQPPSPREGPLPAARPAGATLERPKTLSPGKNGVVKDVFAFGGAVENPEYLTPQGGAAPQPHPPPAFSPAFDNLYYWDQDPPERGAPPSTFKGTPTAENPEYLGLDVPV

FLT3 (human) = FLT3 (human) (UniProt P36888)
MAP4K5 (human) = MAP4K5 (human) (UniProt Q9Y4K4)
CSNK1A1L (human) = CSNK1A1L (human) (UniProt Q8N752)
PIP5K1A (human) = PIP5K1A (human) (UniProt Q99755)
CDK3 (human) = CDK3 (human) (UniProt Q00526)
MET (human) = MET (human) (UniProt P08581)
RPS6KA4 KD1 (human) = RPS6KA4 KD1 (human) (UniProt O75676)
ICK (human) = ICK (human) (UniProt Q9UPZ9)
ZAP70 (human) = ZAP70 (human) (UniProt P43403)
PDGFRA (human) = PDGFRA (human) (UniProt P16234)
PDGFRB (human) = PDGFRB (human) (UniProt P09619)
STK36 (human) = STK36 (human) (UniProt Q9NRP7)
RPS6KA6 KD2 (human) = RPS6KA6 KD2 (human) (UniProt Q9UK32)
Sequence of RPS6KA6 KD2 (human) (Q9UK32 whole entry, looked up): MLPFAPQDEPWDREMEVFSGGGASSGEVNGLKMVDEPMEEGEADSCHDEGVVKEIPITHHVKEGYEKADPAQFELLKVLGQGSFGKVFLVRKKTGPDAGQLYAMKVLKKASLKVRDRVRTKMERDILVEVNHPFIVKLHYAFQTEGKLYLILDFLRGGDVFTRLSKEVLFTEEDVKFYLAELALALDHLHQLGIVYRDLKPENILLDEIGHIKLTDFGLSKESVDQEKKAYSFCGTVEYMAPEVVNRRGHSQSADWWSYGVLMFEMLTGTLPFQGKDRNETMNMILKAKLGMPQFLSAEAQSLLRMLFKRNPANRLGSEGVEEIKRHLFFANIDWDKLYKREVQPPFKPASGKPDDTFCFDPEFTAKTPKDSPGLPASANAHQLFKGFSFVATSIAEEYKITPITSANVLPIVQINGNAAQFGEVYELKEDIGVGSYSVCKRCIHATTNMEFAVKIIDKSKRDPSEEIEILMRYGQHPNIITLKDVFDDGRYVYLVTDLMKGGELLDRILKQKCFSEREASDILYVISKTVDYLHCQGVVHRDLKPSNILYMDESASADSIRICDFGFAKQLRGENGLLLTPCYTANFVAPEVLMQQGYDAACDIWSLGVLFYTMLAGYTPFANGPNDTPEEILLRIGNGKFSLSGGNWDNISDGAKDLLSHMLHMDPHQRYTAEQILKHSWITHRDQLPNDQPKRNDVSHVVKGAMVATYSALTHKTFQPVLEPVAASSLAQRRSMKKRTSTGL

FGFR1 (human) = FGFR1 (human) (UniProt P11362)
Sequence of FGFR1 (human) (P11362 whole entry, looked up): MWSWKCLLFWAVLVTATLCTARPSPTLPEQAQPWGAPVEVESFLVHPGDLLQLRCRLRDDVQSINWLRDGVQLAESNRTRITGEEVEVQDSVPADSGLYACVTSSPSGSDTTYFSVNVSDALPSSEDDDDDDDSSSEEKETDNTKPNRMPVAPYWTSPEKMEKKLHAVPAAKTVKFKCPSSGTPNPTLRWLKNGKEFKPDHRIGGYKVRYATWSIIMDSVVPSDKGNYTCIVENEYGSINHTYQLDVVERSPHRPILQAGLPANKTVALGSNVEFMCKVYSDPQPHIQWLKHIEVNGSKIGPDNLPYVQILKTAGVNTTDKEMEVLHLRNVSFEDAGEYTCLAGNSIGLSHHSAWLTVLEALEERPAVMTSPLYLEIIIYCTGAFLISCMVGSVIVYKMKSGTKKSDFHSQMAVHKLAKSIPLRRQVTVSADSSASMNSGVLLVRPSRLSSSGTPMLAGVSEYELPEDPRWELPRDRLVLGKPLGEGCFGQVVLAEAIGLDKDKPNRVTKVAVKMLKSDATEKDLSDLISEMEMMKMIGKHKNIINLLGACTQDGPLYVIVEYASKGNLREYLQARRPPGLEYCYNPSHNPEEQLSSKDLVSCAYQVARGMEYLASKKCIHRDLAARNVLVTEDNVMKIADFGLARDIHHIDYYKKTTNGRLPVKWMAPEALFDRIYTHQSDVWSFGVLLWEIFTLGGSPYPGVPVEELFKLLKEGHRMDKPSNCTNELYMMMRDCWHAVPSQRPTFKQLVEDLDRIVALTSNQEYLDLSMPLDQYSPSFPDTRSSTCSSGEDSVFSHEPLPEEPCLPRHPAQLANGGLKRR

MAPK4 (human) = MAPK4 (human) (UniProt P31152)
DCLK2 (human) = DCLK2 (human) (UniProt Q8N568)
PRKD3 (human) = PRKD3 (human) (UniProt O94806)
STK33 (human) = STK33 (human) (UniProt Q9BYT3)
MARK4 (human) = MARK4 (human) (UniProt Q96L34)
STK17A (human) = STK17A (human) (UniProt Q9UEE5)
STK35 (human) = STK35 (human) (UniProt Q8TDR2)
PRKX (human) = PRKX (human) (UniProt P51817)
GAK (human) = GAK (human) (UniProt O14976)
HIPK1 (human) = HIPK1 (human) (UniProt Q86Z02)
ACVR2A (human) = ACVR2A (human) (UniProt P27037)
RET (human) = RET (human) (UniProt P07949)
Sequence of RET (human) (P07949 whole entry, looked up): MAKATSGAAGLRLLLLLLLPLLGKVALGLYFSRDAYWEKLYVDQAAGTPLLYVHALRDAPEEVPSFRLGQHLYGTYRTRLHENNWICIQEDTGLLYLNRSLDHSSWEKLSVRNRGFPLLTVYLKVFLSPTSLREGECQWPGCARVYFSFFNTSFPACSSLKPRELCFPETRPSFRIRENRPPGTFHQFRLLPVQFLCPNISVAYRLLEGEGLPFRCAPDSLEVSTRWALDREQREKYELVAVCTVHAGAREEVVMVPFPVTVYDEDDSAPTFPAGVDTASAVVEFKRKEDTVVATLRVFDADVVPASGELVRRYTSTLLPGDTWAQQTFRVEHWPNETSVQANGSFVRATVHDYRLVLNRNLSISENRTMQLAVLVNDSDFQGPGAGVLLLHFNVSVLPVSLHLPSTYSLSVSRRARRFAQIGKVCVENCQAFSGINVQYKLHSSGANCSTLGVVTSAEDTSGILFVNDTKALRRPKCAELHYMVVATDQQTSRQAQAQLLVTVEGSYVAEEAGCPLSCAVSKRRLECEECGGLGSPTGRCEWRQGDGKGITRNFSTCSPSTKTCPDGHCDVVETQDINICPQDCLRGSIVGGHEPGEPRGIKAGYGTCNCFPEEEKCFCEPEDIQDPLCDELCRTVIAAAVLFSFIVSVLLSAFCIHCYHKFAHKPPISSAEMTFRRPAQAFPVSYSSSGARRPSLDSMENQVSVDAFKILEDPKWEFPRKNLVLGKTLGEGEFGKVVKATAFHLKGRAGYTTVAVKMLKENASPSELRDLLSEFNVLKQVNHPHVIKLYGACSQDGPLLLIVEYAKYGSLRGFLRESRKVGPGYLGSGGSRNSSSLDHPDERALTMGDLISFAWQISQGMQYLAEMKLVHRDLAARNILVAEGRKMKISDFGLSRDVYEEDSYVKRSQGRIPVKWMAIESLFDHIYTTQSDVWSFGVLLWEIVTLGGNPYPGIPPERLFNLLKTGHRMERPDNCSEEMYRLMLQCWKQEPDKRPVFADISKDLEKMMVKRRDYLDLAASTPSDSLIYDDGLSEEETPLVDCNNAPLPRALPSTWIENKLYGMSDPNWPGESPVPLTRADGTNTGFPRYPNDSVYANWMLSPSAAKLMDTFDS

NEK4 (human) = NEK4 (human) (UniProt P51957)
[2] = target: TYK2 JH2 pseudokinase (human) (UniProt P29597)
Sequence of TYK2 JH2 pseudokinase (human) (P29597 whole entry, looked up): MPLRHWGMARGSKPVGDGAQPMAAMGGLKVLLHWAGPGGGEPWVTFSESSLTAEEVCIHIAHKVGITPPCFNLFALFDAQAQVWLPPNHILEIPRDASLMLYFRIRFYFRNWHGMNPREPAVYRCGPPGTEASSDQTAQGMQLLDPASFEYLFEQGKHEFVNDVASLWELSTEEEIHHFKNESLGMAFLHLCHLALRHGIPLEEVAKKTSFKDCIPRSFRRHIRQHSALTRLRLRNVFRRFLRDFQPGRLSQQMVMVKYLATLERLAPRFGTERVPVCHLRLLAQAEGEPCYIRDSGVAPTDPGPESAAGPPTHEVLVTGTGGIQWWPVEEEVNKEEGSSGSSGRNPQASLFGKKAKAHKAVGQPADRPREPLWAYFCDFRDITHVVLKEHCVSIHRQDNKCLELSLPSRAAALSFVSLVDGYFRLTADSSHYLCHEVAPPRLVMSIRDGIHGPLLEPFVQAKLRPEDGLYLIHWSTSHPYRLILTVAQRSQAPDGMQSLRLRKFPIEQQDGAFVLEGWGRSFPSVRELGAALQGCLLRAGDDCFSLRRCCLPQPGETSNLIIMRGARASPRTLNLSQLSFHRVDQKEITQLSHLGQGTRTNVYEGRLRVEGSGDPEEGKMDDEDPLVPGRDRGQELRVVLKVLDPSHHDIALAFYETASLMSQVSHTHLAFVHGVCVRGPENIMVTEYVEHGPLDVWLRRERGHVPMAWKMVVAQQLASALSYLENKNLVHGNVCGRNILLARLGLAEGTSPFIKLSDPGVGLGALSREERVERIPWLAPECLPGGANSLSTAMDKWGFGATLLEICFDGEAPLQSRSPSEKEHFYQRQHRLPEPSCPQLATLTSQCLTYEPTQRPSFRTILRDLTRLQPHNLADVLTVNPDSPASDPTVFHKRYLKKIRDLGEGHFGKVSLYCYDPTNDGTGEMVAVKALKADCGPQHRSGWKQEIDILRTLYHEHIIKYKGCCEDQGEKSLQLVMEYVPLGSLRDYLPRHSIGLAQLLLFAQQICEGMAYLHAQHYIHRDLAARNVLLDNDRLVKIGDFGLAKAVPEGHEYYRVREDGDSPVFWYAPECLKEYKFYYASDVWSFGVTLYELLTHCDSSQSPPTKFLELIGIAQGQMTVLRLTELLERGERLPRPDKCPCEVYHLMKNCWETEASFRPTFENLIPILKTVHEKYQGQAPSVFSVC

BRSK1 (human) = BRSK1 (human) (UniProt Q8TDC3)
MKNK2 (human) = MKNK2 (human) (UniProt Q9HBH9)
MAP3K12 (human) = MAP3K12 (human) (UniProt Q12852)

Compound COCCNCCCn1c(C(=O)CF)c(-c2ccc(C)cc2)c2c(N)ncnc21 has a kinase still bound, per cent of control [1] of 100%, a kinase still bound, per cent of control (EPHA8 (human)) of 75% and a kinase still bound, per cent of control (TLK1 (human)) of 78%. For the same compound, the kinase still bound, per cent of control (ERN1 (human)) was 99%, the kinase still bound, per cent of control (EPHA7 (human)) was 92% and the kinase still bound, per cent of control (PKN1 (human)) was 100%. The kinase still bound, per cent of control (CAMKK1 (human)) was 100%, the kinase still bound, per cent of control (RPS6KA5 KD2 (human)) was 98% and the kinase still bound, per cent of control (MAPK12 (human)) was 100%. It also gave a kinase still bound, per cent of control (EGFR (human)) of 96%, a kinase still bound, per cent of control (EPHB2 (human)) of 92% and a kinase still bound, per cent of control (ERBB2 (human)) of 100%. It also gave a kinase still bound, per cent of control (FLT3 (human)) of 71%, a kinase still bound, per cent of control (MAP4K5 (human)) of 86% and a kinase still bound, per cent of control (CSNK1A1L (human)) of 100%. For the same compound, the kinase still bound, per cent of control (PIP5K1A (human)) was 100%, the kinase still bound, per cent of control (CDK3 (human)) was 100% and the kinase still bound, per cent of control (MET (human)) was 97%. For the same compound, the kinase still bound, per cent of control (RPS6KA4 KD1 (human)) was 100%, the kinase still bound, per cent of control (ICK (human)) was 100% and the kinase still bound, per cent of control (ZAP70 (human)) was 85%. For the same compound, the kinase still bound, per cent of control (PDGFRA (human)) was 83%, the kinase still bound, per cent of control (PDGFRB (human)) was 68% and the kinase still bound, per cent of control (STK36 (human)) was 95%. The kinase still bound, per cent of control (RPS6KA6 KD2 (human)) was 2.4%, the kinase still bound, per cent of control (FGFR1 (human)) was 98% and the kinase still bound, per cent of control (MAPK4 (human)) was 100%. For the same compound, the kinase still bound, per cent of control (DCLK2 (human)) was 100%, the kinase still bound, per cent of control (PRKD3 (human)) was 100% and the kinase still bound, per cent of control (STK33 (human)) was 100%. The kinase still bound, per cent of control (MARK4 (human)) was 74%, the kinase still bound, per cent of control (STK17A (human)) was 98% and the kinase still bound, per cent of control (STK35 (human)) was 99%. For the same compound, the kinase still bound, per cent of control (PRKX (human)) was 80%, the kinase still bound, per cent of control (GAK (human)) was 100% and the kinase still bound, per cent of control (HIPK1 (human)) was 96%. For the same compound, the kinase still bound, per cent of control (ACVR2A (human)) was 100%, the kinase still bound, per cent of control (RET (human)) was 88% and the kinase still bound, per cent of control (NEK4 (human)) was 100%. The kinase still bound, per cent of control [2] was 100%, the kinase still bound, per cent of control (BRSK1 (human)) was 82% and the kinase still bound, per cent of control (MKNK2 (human)) was 92%. It also gave a kinase still bound, per cent of control (MAP3K12 (human)) of 94%.
